In US10208071B2, “Use of agonists of formyl peptide receptor 2 for treating ocular inflammatory diseases” (Allergan, Inc., priority 2013, dated 2019):

Legend:
FPR2 [1] = target: T1, FPR2 (Homo sapiens (Human), UniProt P25090); assay: FPR2 Ga16-CHO EC50 (efficacy), Tables 1-3; type: cell-based; details: for FPR2 Ga16-CHO (efficacy): efficacy in parentheses
FPR2 [2] = target: T1, FPR2; assay: FLIPR Ca+2 response, HEK-Gα16 cells stably expressing the human FPR2 receptor (Table 4); type: cell-based; details: for FPR2 (efficacy): efficacy in parentheses
Summary of the method: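 HEK-Gα16 cells stably expressing human FPR2, loaded with 2 μM Fluo-4 in HBSS/20 mM HEPES for 40 min at 37° C., then washed. Ligands added in HBSS/Hepes and Ca+2 responses recorded on FLIPR in relative fluorescence units.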

T1 sequence (P25090 whole entry): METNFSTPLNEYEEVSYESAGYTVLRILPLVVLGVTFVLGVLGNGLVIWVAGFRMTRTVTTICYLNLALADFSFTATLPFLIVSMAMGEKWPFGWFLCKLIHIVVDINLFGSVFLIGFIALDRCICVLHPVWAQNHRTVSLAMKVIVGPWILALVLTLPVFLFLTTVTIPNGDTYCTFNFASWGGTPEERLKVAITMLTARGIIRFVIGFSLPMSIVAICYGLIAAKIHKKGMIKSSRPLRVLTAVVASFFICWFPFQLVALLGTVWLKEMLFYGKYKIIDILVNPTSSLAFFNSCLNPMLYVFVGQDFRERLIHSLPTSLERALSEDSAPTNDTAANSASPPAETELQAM

Row | EC50 (FPR2 [2]) [nM] | FPR2 (efficacy) (FPR2 [2]) | Compound | other results
1 | – | – | CCC1(CC)NC(=O)N(CC(=O)Nc2ccc(Br)cc2)C1=O [N-(4-bromophenyl)-2-(4,4-diethyl-2,5-dioxoimidazolidin-1-yl)acetamide] | EC50 (FPR2 [1]): 96 nM; FPR2 Ga16-CHO (efficacy) (FPR2 [1]): nM (0.98)
2 | – | – | CC(C)[C@H](NC(=O)Nc1ccc(Br)cc1)C(=O)O [(2S)-2-({[(4-bromophenyl)amino]carbonyl}amino)-3-methylbutanoic acid] | EC50 (FPR2 [1]): 72 nM; FPR2 Ga16-CHO (efficacy) (FPR2 [1]): nM (0.91)
3 | – | – | CCC1(C)NC(=O)N(CC(=O)Nc2ccc(Br)cc2)C1=O (stereo not shown) [N-(4-bromophenyl)-2-(4-ethyl-4-methyl-2,5-dioxoimidazolidin-1-yl)acetamide] | EC50 (FPR2 [1]): 485 nM; FPR2 Ga16-CHO (efficacy) (FPR2 [1]): nM (1.0)
4 | – | – | O=C(Nc1cccnc1)NC(Cc1ccccc1)C(=O)O (stereo not shown) [3-phenyl-2-{[(pyridin-3-ylamino)carbonyl]amino}propanoic acid] | EC50 (FPR2 [1]): > 10000 nM
5 | – | – | CC1(C)NC(=O)N(CC(=O)Nc2ccc(Br)cc2)C1=O [N-(4-bromophenyl)-2-(4,4-dimethyl-2,5-dioxoimidazolidin-1-yl)acetamide] | EC50 (FPR2 [1]): 719 nM; FPR2 Ga16-CHO (efficacy) (FPR2 [1]): nM (0.94)
6 | 4 | nM (0.90) | O=C(O)[C@@H]1C2CCC([C@@H]1C(=O)Nc1ccc(Br)cc1)C21CC1 (relative stereo) [Compound 14, rel-(2R,3S)-3-[(4-bromophenyl)carbamoyl] spiro[bicyclo[2.2.1]heptane-7,1′-cyclopropane]-2-carboxylic acid] | –
7 | 3.3 | nM (0.97) | CSc1ccc(NC(=O)Nc2ccc3c(c2)C(=O)N(CCCN)[C@@H](c2ccc(C#N)cc2)C3)cc1 [Compound 36, (+)1-[(3R)-2-(3-aminopropyl)-3-(4-cyanophenyl)-1-oxo-1,2,3,4-tetrahydroisoquinolin-7-yl]-3-[4-(methylsulfanyl)phenyl]urea] | –
8 | 1.7 | nM (0.99) | CC(C)C[C@H](NC(=O)Nc1ccc(Br)cc1)C(=O)NCC(=O)N(C)C [Compound 120, (2S)-2-{[(4-bromophenyl)carbamoyl]amino}-N-[2-(dimethylamino)-2-oxoethyl]-4-methylpentanamide] | –
9 | 4.1 | nM (0.91) | CCC[C@H](NC(=O)Nc1ccc(Br)cc1F)C(=O)NCC(=O)O [Compound 74, {[(2S)-2-+{[(4-bromo-2-fluorophenyl)carbamoyl]amino}pentanoyl]amino}acetic acid] | –
10 | 11 | nM (0.89) | O=C(Nc1ccc(Br)cc1)NC(Cc1ccccc1)C(=O)NC1CCCCNC1=O (stereo not shown) [Compound 10, 2-{[(4-bromophenyl)carbamoyl]amino}-N-(2-oxoazepan-3-yl)-3-phenylpropanamide] | –
11 | – | nM (1.00) | CS(=O)(=O)c1ccc(NC(=O)Nc2ccc3c(c2)C(=O)N(CCc2c[nH]cn2)C(c2ccc(C#N)cc2)C3)cc1 (stereo not shown) [Compound 19, 1-{3-(4-cyanophenyl)-2-[2-(1H-imidazol-4-yl)ethyl]-1-oxo-1,2,3,4-tetrahydroisoquinolin-7-yl}-3-[4-(methylsulfonyl)phenyl]urea] | –
12 | – | (0.91) | CCC[C@H](NC(=O)Nc1ccc(Br)cc1)C(=O)NCC(=O)O [Compound 2, {[(2S)-2-{[(4-bromophenyl)carbamoyl]amino}pentanoyl]amino}acetic acid] | EC50 (FPR2 [2]; unit inferred): 2 nM
13 | – | nM (0.98) | CC(C)C[C@H](NC(=O)Nc1ccc(Br)cc1)C(=O)NCC(O)CO (stereo partly drawn) [Compound 95, (2S)-2-{[(4-bromophenyl)carbamoyl]amino}-N-(2,3-dihydroxypropyl)-4-methylpentanamide] | –
14 | 7.1 | nM (1.0) | CCC[C@H](NC(=O)Nc1ccc(Br)cc1)C(=O)O [Compound 70, (2S)-2-{[(4-bromophenyl)carbamoyl]amino} pentanoic acid] | –
15 | 2.1 | nM (1.0) | CC1(CCc2cccc(O)c2)NC(=O)N(NC(=O)Nc2ccc(Br)cc2)C1=O (stereo not shown) [Compound 108, 1-(4-bromophenyl)-3-{4-[2-(3-hydroxyphenyl)ethyl]-4-methyl-2,5-dioxoimidazolidin-1-yl}urea] | –
16 | 2.5 | nM (0.93) | CC(C)C[C@H](NC(=O)Nc1ccc(Br)cc1)C(=O)NCC(C)(C)O [Compound 93, (2S)-2-{[(4-bromophenyl)carbamoyl]amino}-N-(2-hydroxy-2-methylpropyl)-4-methylpentanamide] | –
17 | – | nM (0.85) | CC1(C)C2CCC1C(C(=O)Nc1ccc(Br)cc1)C2C(=O)O (stereo not shown) [Compound 21, 3-[(4-bromophenyl)carbamoyl]-7,7-dimethylbicyclo[2.2.1]heptane-2-carboxylic acid] | –

Row | EC50 (FPR2 [2]) [nM] | FPR2 (efficacy) (FPR2 [2]) | Compound | other results
18 | 16.4 | nM (0.86) | CCC[C@H](NC(=O)Nc1ccc(Br)cc1)C(=O)NCC(=O)OC [Compound 72, methyl{[(2S)-2-{[(4-bromophenyl)carbamoyl]amino}pentanoyl]amino}acetate] | –
19 | 1 | nM (1.0) | CC(C)C1(CC(=O)NCCC(=O)O)NC(=O)N(NC(=O)Nc2ccc(Br)cc2F)C1=O (stereo not shown) [Compound 145, 3-({[-{[(4-bromo-2-fluorophenyl)carbamoyl]amino}-2,5-dioxo-4-(propan-2-yl)imidazolidin-4-yl]acetyl}amino)propanoic acid] | –
20 | – | nM (0.96) | CC(C)C[C@H](NC(=O)Nc1ccc(Br)cc1)C(=O)NC(CO)CO [Compound 94, (2S)-2-{[(4-bromophenyl)carbamoyl]amino}-N-(1,3-dihydroxypropan-2-yl)-4-methylpentanamide] | –
21 | 12 | nM (0.99) | CCOC(=O)C1CCC2(CC1)NC(=O)N(NC(=O)Nc1ccc(Br)cc1)C2=O (stereo not shown) [Compound 153, ethyl 3-{[(4-bromophenyl)carbamoyl]amino}-2,4-dioxo-1,3-diazaspiro[4.5]decane-8-carboxylate] | –
22 | – | nM (0.97) | CCC[C@H](NC(=O)Nc1ccc(Br)cc1)C(=O)NCC(N)=O [Compound 79, (2S)-N-(2-amino-2-oxoethyl)-2-{[(4-bromophenyl)carbamoyl]amino} pentanamide] | –
23 | 12.4 | nM (0.94) | CC(=O)CNC(=O)[C@H](Cc1ccccc1)NC(=O)Nc1ccc(Br)cc1F [Compound 68, (2S)-2-{[(4-bromo-2-fluorophenyl)carbamoyl]amino}-N-(2-oxopropyl)-3-phenylpropanamide] | –
24 | – | nM (1.0) | CC(C)C[C@H](NC(=O)Nc1ccc(Br)cc1)C(=O)N[C@H](C(=O)O)c1ccccc1 [Compound 103, (2S)-{[(2S)-2-{[(4-bromophenyl)carbamoyl]amino}-4-methylpentanoyl]amino} (phenyl)ethanoic acid] | –
25 | 2.2 | nM (0.79) | CC1(CCc2cccc(O)c2)NC(=O)N(NC(=O)Nc2ccc(Br)cc2F)C1=O (stereo not shown) [Compound 107, 1-(4-bromo-2-fluorophenyl)-3-{4-[2-(3-hydroxyphenyl)ethyl]-4-methyl-2,5-dioxoimidazolidin-1-yl}urea] | –
26 | – | nM (0.70) | CSc1ccc(NC(=O)Nc2ccc3c(c2)C(=O)N(CCCN)C(c2ccc(C#N)cc2)C3)cc1 (stereo not shown) [Compound 16, 1-[2-(3-aminopropyl)-3-(4-cyanophenyl)-1-oxo-1,2,3,4-tetrahydroisoquinolin-7-yl]-3-[4-(methylsulfanyl)phenyl]urea] | –
27 | 2.5 | nM (0.96) | NC(=O)C1C(C(=O)Nc2ccc(Br)cc2)C2CCC1C21CC1 (stereo not shown) [Compound 30, N-(4-bromophenyl) spiro[bicyclo[2.2.1]heptane-7,1′-cyclopropane]-2,3-dicarboxamide] | –
28 | – | nM (0.95) | Cc1ccc(CCC2(C)NC(=O)N(NC(=O)Nc3ccc(Br)cc3)C2=O)o1 (stereo not shown) [Compound 97, 1-(4-bromophenyl)-3-{4-methyl-4-[2-(5-methylfuran-2-yl)ethyl]-2,5-dioxoimidazolidin-1-yl}urea] | –
29 | 1.6 | nM (0.90) | NC(=O)C1C(C(=O)Nc2ccc(I)cc2)C2C=CC1C21CC1 (stereo not shown) [Compound 39, N-(4-iodophenyl) spiro[bicyclo[2.2.1]heptane-7,1′-cyclopropane]-5-ene-2,3-dicarboxamide] | –
30 | 6.7 | nM (1.0) | CC(C)NC(=O)C1C(C(=O)Nc2ccc(Br)cc2)C2CCC1C21CC1 (stereo not shown) [Compound 48, N-(4-bromophenyl)-N′-(propan-2-yl)spiro[bicyclo[2.2.1]heptane-7,1′-cyclopropane]-2,3-dicarboxamide] | –
31 | – | nM (0.81) | CC1(C)C2CCC1C(C(=O)Nc1ccc(I)cc1)C2C(N)=O (stereo not shown) [Compound 35, N-(4-iodophenyl)-7,7-dimethylbicyclo[2.2.1]heptane-2,3-dicarboxamide] | –
32 | 2.7 | nM (1.0) | CC(C)C1(CC(=O)NCCO)NC(=O)N(NC(=O)Nc2ccc(Br)cc2)C1=O (stereo not shown) [Compound 133, 2-[1-{[(4-bromophenyl)carbamoyl]amino}-2,5-dioxo-4-(propan-2-yl)imidazolidin-4-yl]-N-(2-hydroxyethyl)acetamide] | –
33 | – | nM (0.82) | CC(=O)CNC(=O)[C@H](CC(C)C)NC(=O)Nc1ccc(Br)cc1 [Compound 78, (2S)-2-{[(4-bromophenyl)carbamoyl]amino}-4-methyl-N-(2-oxopropyl)pentanamide] | –
34 | – | nM (0.99) | O=C(O)CNC(=O)[C@H](Cc1ccccc1)NC(=O)Nc1ccc(Br)cc1 [Compound 55, {[(2S)-2-{[(4-bromophenyl)carbamoyl]amino}-3-phenylpropanoyl]amino}acetic acid] | –

Row | Compound | EC50 (FPR2 [2]) [nM] | FPR2 (efficacy) (FPR2 [2]) | other results
35 | CCOP(=O)(O)CNC(=O)[C@H](CC(C)C)NC(=O)Nc1ccc(Br)cc1 [Compound 105, ethyl hydrogen ({[(2S)-2-{[(4-bromophenyl)carbamoyl]amino}-4-methylpentanoyl]amino}methyl)phosphonate] | – | nM (0.88) | –
36 | CCC[C@H](NC(=O)Nc1ccc(Br)cc1)C(=O)NCP(=O)(O)OCC [Compound 123, ethyl hydrogen ({[(2S)-2-{[(4-bromophenyl)carbamoyl]amino}pentanoyl]amino}methyl) phosphonate] | – | nM (0.96) | –
